Laboratory results reported in ChEMBL document CHEMBL1201862, “PubChem BioAssay data set” (2004).
Calls of active or inactive are those of the source.

Key:
[1] = biological target: T1, Low molecular weight phosphotyrosine protein phosphatase (Homo sapiens, UniProt P24666); type: functional; settings: read-out: IC50_Mean;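 note: Dose-response confirmation assay measuring inhibition of LMPTP enzyme activity by fluorescence intensity read-out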
T1 sequence (P24666 whole entry): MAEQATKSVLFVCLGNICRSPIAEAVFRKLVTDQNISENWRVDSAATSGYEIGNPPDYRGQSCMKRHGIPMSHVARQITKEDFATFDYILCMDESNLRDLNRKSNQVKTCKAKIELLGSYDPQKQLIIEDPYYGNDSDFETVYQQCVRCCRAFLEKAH

SN12K1 = test: cells; type: functional; settings: Homo sapiens
P388 = test: cells; type: functional; settings: Mus musculus
P388/ADR = test: cells; type: functional; settings: Mus musculus
[2] = off-target signal loss in HeLa-CEM21 co-culture – HeLa F-luc CTL cells, cherry-picked, counter-screen for HIV-1 Env fusion inhibitor project, dose response (AID 652040); type: functional, cell-based;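 note: potency for signal decrease marking cytotoxic or nonspecific inhibition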
[3] = blockers of HIV-1 envelope-mediated cell-cell fusion – cherry-pick, dose response (AID 652057); type: functional, cell-based
[4] = viability of uninfected HEp-2 cells – cell-based, HTS, cytotoxicity control for RSV inhibitor project, dose response (AID 2410); type: functional; settings: human respiratory syncytial virus
[5] = viability loss in CEM21 cells – cell-based, CellTiter-Glo luminescence, cherry-picked, cytotoxicity control for viral fusion inhibitor project, dose response (AID 652042); type: functional;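 note: potency for signal decrease meaning cytotoxicity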
[6] = HIV-1 AD8 envelope cell-cell fusion blockers – cherry-pick, dose response (AID 652062); type: functional, cell-based;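 note: luciferase signal from cell-cell fusion driven by HIV-1 clade B AD8 Env; potency is for inhibitors of fusion seen as a drop in luminescence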
[7] = blockers of HIV-1 ZM109 envelope-driven cell-cell fusion – HeLa effector, CEM target cells, luciferase, cherry-pick, dose response (AID 652058); type: functional, cell-based;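 note: luciferase signal from HIV-1 Env mediated cell-cell fusion of effector and target cells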
Melanocortin receptor 4 = Melanocortin receptor 4 (Homo sapiens, UniProt P32245); type: functional, cell-based;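 note: Cell-based assay with luminescence read-out, confirmatory dose-response testing for agonist activity of biased ligands at MC4R; human U2OS cells with tagged receptor and beta-arrestin; potency of agonists that increase receptor coupling to beta-arrestin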
[8] = biological target: T2, Sentrin-specific protease 1 (Homo sapiens, UniProt Q9P0U3); test: SENP1 catalytic domain blockers, concentration series – biochemical, kinetic FRET, dose response (AID 651697); type: functional; settings: read-out: IC50_Mean
T2 sequence (Q9P0U3 whole entry): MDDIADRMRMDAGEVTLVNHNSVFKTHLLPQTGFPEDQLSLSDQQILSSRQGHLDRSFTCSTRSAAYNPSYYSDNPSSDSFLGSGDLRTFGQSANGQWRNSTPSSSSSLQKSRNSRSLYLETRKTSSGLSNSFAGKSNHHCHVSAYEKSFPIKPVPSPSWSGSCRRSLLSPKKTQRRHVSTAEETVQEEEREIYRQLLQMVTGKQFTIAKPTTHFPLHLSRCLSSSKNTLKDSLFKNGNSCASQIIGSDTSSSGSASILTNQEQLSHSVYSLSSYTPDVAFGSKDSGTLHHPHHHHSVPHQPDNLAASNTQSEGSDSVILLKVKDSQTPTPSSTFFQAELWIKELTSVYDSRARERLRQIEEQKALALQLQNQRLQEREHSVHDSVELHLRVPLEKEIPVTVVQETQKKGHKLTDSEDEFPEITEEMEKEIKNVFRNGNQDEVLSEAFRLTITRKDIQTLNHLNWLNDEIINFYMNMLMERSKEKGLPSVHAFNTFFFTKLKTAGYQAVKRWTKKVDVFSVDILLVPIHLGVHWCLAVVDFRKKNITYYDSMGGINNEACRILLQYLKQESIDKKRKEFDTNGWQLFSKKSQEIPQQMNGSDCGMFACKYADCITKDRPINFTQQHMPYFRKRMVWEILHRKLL

[9] = biological target: T2, Sentrin-specific protease 1; test: Dose response confirmation of small molecule inhibitors of the catalytic domain of the SUMO protease, SENP1 in a FRET assay.; type: functional; settings: read-out: IC50_Mean
[10] = biological target: T3, Adenosylmethionine-8-amino-7-oxononanoate aminotransferase (Mycobacterium tuberculosis, UniProt P9WQ81); test: Mycobacterium tuberculosis BioA enzyme inhibitor Measured in Biochemical System Using Plate Reader - 2163-02_Inhibitor_Dose_CherryPick_Activity.; type: functional, Mycobacterium tuberculosis UT205
T3 sequence (P9WQ81 whole entry): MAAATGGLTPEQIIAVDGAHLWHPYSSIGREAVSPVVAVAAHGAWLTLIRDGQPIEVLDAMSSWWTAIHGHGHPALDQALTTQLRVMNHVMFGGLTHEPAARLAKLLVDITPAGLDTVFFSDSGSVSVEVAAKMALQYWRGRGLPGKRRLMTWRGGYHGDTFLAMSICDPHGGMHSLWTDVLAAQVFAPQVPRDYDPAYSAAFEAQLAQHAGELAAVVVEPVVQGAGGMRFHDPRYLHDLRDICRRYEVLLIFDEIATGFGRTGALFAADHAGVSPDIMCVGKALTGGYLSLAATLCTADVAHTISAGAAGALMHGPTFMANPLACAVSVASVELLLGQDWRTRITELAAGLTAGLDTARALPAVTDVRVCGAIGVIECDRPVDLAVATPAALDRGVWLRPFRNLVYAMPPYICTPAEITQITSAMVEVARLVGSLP

[11] = biological target: T4, DNA repair and recombination protein RAD54-like (Homo sapiens, UniProt Q92698); test: RAD54 Holliday junction migration blockers – biochemical, fluorescence, cherry-picked samples, dose series, confirmation (AID 651657); type: functional
T4 sequence (Q92698 whole entry): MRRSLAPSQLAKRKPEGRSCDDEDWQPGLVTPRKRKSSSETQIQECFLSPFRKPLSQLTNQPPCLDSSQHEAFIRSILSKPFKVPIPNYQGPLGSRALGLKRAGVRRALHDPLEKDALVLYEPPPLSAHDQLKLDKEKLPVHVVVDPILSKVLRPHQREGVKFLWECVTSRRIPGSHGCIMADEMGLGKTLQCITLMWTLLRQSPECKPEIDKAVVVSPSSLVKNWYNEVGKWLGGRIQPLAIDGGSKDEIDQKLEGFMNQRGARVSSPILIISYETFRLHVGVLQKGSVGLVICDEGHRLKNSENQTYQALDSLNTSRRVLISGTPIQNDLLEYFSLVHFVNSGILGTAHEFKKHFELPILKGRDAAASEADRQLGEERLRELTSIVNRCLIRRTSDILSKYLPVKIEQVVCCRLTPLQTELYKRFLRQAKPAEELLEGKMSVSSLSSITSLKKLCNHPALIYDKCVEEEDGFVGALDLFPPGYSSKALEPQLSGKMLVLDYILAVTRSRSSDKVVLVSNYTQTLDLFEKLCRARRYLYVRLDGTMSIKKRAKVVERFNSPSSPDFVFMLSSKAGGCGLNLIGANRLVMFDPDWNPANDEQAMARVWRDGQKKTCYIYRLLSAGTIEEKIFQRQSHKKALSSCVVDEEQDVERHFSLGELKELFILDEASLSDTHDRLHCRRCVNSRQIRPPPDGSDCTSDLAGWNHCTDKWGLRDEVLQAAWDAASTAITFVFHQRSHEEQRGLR

[12] = biological target: T5, Ubiquitin-conjugating enzyme E2 N (Homo sapiens, UniProt P61088); type: functional;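 note: Dose-response confirmation in a TR-FRET assay detecting UBC13-driven polyubiquitin chain formation, inhibition measured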
T5 sequence (P61088 whole entry): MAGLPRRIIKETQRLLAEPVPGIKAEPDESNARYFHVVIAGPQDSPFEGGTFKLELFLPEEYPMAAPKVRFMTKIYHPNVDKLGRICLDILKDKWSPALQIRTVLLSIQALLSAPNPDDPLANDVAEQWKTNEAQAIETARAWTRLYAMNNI

[13] = biological target: T6, DNA repair protein RAD52 homolog (Homo sapiens, UniProt P43351); type: functional, biochemical
T6 sequence (P43351 whole entry): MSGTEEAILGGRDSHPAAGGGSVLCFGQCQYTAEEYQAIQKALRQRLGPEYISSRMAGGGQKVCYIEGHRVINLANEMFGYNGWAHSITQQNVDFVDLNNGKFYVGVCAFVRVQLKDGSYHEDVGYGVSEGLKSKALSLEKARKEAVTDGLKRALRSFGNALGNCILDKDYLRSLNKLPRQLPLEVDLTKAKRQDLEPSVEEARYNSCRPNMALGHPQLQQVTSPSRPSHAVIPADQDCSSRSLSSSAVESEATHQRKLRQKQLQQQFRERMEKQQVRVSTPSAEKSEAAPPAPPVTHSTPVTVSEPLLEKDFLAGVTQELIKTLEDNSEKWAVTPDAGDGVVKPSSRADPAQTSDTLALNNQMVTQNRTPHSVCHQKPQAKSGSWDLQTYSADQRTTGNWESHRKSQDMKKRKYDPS

[14] = NIH3T3 cell viability loss – ATP luminescence, mouse fibroblasts, counter-screen, dose response (AID 2010); type: functional, cell-based;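 note: cells exposed to compound for about 90 hours before reading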
[15] = Trypanosoma cruzi growth suppression in host cells – NIH3T3 host cells, beta-gal luminescence, confirmation (AID 2044); type: functional, cell-based;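 note: intracellular parasites grown in NIH/3T3 mouse fibroblasts as host cells; luminescent beta-galactosidase reporter signal from transgenic T. cruzi replicating inside host cells; inhibitors lower the luminescence signal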
H9c2 = test: cells; type: functional, cell-based; settings: Rattus norvegicus, H9c2, Myocardium;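 note: confirmatory concentration-response retest of ultra-high-throughput screening hits for modulation of myocardial damage; cell death induced by hydrogen peroxide oxidative stress; compound pretreatment for 60 min then peroxide exposure for 2 h; potency is for protecting the cells against peroxide damage rather than for killing them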
[16] = biological target: Heat shock protein HSP 90-alpha (Homo sapiens, UniProt P07900); type: functional, organism-based

Melanocortin receptor 4, sequence (P32245 whole entry, the tested form may be a part): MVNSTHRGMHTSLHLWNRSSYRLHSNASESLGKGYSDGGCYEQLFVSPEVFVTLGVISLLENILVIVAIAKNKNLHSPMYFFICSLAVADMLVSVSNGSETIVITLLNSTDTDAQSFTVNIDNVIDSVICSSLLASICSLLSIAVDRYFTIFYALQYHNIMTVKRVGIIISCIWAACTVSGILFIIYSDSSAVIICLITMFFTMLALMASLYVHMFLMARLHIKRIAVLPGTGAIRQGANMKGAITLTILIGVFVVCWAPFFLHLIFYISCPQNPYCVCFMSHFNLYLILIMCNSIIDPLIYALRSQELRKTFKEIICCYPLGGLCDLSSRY

For `O=c1[nH]c2ccccc2n1C1CCN(Cc2ccc(-c3nc4cc5[nH]cnc5cc4nc3-c3ccccc3)cc2)CC1`, the IC50 [1] was 7.43 µM (active).

With `CC(=O)Oc1ccc(C2COc3cc(OC(C)=O)c(OC(C)=O)cc3C2)cc1` (stereo not given) the GI50 (SN12K1) was 13 µM (inactive), the GI50 (P388) was 6 µM (inactive) and the GI50 (P388/ADR) was 5.42 µM (inactive).

In the case of `CCOc1cc(CNCCc2c[nH]c3ccccc23)cc(Cl)c1OCC`, the AC50 [2] is reported as 6.11 µM (active), the AC50 [3] is reported as 4.29 µM (active) and the CC50 [4] is reported as 14.9 µM (active). For the same compound, the AC50 [5] was 26.6 µM (active), the AC50 [6] was 27.2 µM (active) and the AC50 [7] was 2.31 µM (active). The EC50 (Melanocortin receptor 4) was > 89.2 µM (inactive).

For `CCCN(CCC)C(=O)Cn1c(=O)c2sccc2n2c(=S)sc(-c3ccccc3)c12`, the IC50 [8] was 73.8 µM (inactive) and the IC50 [9] was 12.6 µM (active).

With `O=C(O)CC(NC(=O)CP(=O)(O)O)C(=O)O` (stereo not given) the GI50 (SN12K1) was 5.32 µM (inactive), the GI50 (P388) was 127 µM (inactive) and the GI50 (P388/ADR) was 77.1 µM (inactive).

With `CSCSCC(CO)NC(=O)/C(C)=C\c1c(C)[nH]c(=O)[nH]c1=O` (stereo not given) the GI50 (SN12K1) was > 250 µM (inactive), the GI50 (P388) was > 250 µM (inactive) and the GI50 (P388/ADR) was > 250 µM (inactive).

For `Cc1ccc(-c2csc3nc(-c4ccncc4)[nH]c(=O)c23)cc1`, the IC50 [8] was 69.3 µM (inactive) and the IC50 [9] was 62 µM (inactive).

In the case of `C/C(=C\c1ccccc1)C(=O)CCN1CCOCC1`, the GI50 (SN12K1) is reported as 17.9 µM (inactive), the GI50 (P388) is reported as 4.78 µM (inactive) and the GI50 (P388/ADR) is reported as 5.73 µM (inactive).

For `Cn1nnc2cc(C(=O)Nc3cccnc3)ccc21`, the AC50 [10] was 4.17 µM (active).

With `CCOC(=O)c1c(C)n(C)c2ccc(OCC(O)CN3CCN(C)CC3)cc12` (stereo not given) the AC50 [11] was 38.9 µM (active).

For `N=C(N)Nc1nc(-c2ccccc2)c2cc(Cl)ccc2n1`, the IC50 [12] was > 20 µM (inactive), the AC50 [13] was 6.61 µM (active) and the EC50 (Melanocortin receptor 4) was > 89.2 µM (inactive). The EC50 [14] was > 60 µM (not active) and the EC50 [15] was 0.382 µM (active).

With `COc1cccc(-c2cnc3c(NC=O)cc(-c4cc(OC)c(OC)c(OC)c4)cn23)c1` the EC50 (Melanocortin receptor 4) was > 89.2 µM (inactive) and the IC50 (H9c2) was > 79 µM (inactive).

In the case of `O=c1c2ccccc2nc2sc(Nc3cccc(Cl)c3)nn12`, the IC50 [1] is reported as 14.5 µM (active).

For `CSc1nc(SCC(N)=O)c2c3c(sc2n1)CN(C)CC3`, the AC50 [11] was 17.2 µM (active).

In the case of `C/C=C/c1ccc2c(c1)O[C@@H](CN(C)C(=O)Nc1ccccc1)[C@H](C)CN([C@H](C)CO)S2(=O)=O`, the AC50 [10] is reported as 5.6 µM (active).

In the case of `Oc1nc(N2CCN(Cc3ccc4c(c3)OCO4)CC2)nc2c1CCCC2`, the AC50 [10] is reported as 0.921 µM (active).

For `Oc1ccc(C=NN=C2c3ccccc3-c3ccccc32)c(O)c1`, the IC50 [8] was 12.5 µM (active), the IC50 [9] was 6.06 µM (active) and the AC50 [16] was 12.1 µM (active).
